According to publication PMC5522071, “Preclinical development of G1T38: A novel, potent and selective inhibitor of cyclin dependent kinases 4/6 for use as an oral antineoplastic in patients with CDK4/6 sensitive tumors” (Oncotarget, 2017):

Key:
in vivo = settings: po, 100 mg/kg
Procedure: To evaluate the murine PK/PD relationship of G1T38, an ER^+ MCF7 xenograft model was utilized. Compound concentrations were measured in plasma and tumors from tumor-bearing mice given a single oral dose of G1T38 (100 mg/kg). […] To assess the effects of G1T38 on pRB, tumors were harvested and pRB was analyzed by immunoblotting.

neutrophils = test: GLP 28-day toxicology study, CBC; assay type: in vivo, beagle dogs; settings: 1, 2.5 and 5 mg/kg/day
Procedure: However, from 14 to 25 days, cells reached a steady state level, which was readily reversible once dosing was stopped (Figure 5E).
Beagle dogs (5/ sex) were dosed once daily for 28 consecutive days via oral gavage. The dose levels were 1, 2.5 and 5 mg/kg/day and administered at a dose volume of 5 mL/kg. Hematology samples (1ml/ time point) were collected in K3EDTA tubes twice pre-test and then on days 7, 14, 21, and 25 during the dosing period and on days 35, and 42 during the recovery period. Complete blood counts were performed and results reported. All studies were conducted utilizing methods and protocols in accordance with IACUC approval at MPI Research (Mattawan, MI).

CDK2/Cyclin E = CDK2/Cyclin E (Homo sapiens, UniProt P24941); settings: read-out: IC50 CDK2/Cyclin E, Mean; 12-point dose response, singlicate, at Km for ATP
Procedure: The assays were completed using microfluidic kinase detection technology (Caliper Assay Platform). The compounds were tested in 12-point dose response format in singlicate at the Km for ATP. Phosphoacceptor substrate peptide concentration used was 1 μM and Staurosporine was used as the reference compound for all assays.

CDK7/Cyclin H/ Mat1 = molecular target: T1, CDK7/Cyclin H/ Mat1 (Homo sapiens, UniProt P50613); assay type: biochemical; settings: 12-point dose response, singlicate, at Km for ATP
T1 construct: purchased Nanosyn, Inc. (contract assay)

CDK1/Cyclin B1 = molecular target: T2, CDK1/Cyclin B1 (Homo sapiens, UniProt P06493); assay type: biochemical; settings: 12-point dose response, singlicate, at Km for ATP
T2 construct: purchased Nanosyn, Inc. (contract assay)

CDK5/p35 = molecular target: T3, CDK5/p35 (Homo sapiens, UniProt Q00535); assay type: biochemical; settings: 12-point dose response, singlicate, at Km for ATP
T3 construct: purchased Nanosyn, Inc. (contract assay)

Elimination half-life = settings: in vivo
Procedure: Supplementary Table 2: Elimination Half-Lives of G1T38
T1/2 (hrs) Mouse Rat Dog Human
Elimination half-lives (T1/2) were determined for G1T38 (in-house results and calculated as part of NCT02821624) and
In lower order species, mice and rats, values are similar between both compounds, however in dogs and […]

T2 sequence (P06493 whole entry): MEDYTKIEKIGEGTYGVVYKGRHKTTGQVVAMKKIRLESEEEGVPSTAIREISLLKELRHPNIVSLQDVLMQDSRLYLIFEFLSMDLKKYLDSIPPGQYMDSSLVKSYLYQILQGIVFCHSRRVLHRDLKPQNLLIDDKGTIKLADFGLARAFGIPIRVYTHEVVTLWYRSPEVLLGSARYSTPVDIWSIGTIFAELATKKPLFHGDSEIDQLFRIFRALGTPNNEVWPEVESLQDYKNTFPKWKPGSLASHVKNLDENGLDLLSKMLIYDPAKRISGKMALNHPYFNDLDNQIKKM
T2 sequence (P14635 whole entry partner): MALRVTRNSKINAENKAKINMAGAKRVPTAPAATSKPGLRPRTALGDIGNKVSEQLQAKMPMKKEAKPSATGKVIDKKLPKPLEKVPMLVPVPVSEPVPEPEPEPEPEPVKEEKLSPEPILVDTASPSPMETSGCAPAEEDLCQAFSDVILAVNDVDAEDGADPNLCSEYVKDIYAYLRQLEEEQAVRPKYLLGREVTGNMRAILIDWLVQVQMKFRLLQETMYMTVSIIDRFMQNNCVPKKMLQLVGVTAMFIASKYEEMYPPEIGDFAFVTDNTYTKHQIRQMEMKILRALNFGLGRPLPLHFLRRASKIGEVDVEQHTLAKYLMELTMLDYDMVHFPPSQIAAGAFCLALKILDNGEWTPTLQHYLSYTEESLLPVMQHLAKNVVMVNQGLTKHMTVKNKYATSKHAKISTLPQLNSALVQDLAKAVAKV
T1 sequence (P50613 whole entry): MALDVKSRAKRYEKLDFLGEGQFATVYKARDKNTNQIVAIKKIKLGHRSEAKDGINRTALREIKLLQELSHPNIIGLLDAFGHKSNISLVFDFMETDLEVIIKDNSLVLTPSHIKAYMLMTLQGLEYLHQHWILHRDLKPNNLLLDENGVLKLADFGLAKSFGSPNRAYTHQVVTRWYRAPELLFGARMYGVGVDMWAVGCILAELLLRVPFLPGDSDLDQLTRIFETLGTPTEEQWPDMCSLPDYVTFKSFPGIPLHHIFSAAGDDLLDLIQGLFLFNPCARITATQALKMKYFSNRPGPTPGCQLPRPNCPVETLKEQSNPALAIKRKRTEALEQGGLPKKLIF
T1 sequence (P51946 whole entry partner): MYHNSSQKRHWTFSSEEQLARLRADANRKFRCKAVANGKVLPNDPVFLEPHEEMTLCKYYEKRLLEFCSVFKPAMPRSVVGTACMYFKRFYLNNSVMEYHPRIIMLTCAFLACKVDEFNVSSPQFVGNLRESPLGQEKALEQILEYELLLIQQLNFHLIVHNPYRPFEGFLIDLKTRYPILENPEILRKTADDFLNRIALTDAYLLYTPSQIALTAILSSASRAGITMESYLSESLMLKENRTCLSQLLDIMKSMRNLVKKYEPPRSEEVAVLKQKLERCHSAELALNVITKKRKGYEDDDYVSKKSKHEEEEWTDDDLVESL
T1 sequence (P51948 whole entry partner): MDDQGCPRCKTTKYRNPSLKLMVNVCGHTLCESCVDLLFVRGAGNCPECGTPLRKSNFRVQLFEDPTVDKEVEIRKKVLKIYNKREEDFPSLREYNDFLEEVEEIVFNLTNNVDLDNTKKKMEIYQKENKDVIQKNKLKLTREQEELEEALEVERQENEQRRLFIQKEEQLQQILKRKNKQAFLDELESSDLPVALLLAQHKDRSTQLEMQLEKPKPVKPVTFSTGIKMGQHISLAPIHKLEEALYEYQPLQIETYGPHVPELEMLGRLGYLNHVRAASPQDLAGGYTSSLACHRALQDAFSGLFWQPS
T3 sequence (Q00535 whole entry): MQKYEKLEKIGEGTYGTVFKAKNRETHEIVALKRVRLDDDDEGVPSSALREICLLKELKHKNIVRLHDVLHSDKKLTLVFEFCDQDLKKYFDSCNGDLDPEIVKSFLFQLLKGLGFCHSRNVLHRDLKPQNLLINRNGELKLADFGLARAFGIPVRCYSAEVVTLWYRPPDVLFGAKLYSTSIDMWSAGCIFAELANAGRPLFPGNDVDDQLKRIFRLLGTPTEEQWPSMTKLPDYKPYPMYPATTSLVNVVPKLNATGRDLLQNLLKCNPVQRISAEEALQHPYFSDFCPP
T3 sequence (Q15078 2-307 partner limits assumed): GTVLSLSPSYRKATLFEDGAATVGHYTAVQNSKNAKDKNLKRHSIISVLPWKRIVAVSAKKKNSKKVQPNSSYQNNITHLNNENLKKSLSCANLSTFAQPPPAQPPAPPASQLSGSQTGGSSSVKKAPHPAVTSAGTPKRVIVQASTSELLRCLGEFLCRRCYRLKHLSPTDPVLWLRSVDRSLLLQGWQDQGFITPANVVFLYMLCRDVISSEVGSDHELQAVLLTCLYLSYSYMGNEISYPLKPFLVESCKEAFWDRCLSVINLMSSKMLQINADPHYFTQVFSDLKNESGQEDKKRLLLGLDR

Work on CC(C)N1CCN(c2ccc(Nc3ncc4cc5n(c4n3)C3(CCCCC3)CNC5=O)nc2)CC1.Cl.Cl [G1T38, 2′-((5-(4-isopropylpiperazin-1-yl)pyridin-2-yl)amino)-7′, 8′dihydro-6′Hspiro[cyclohexane1,9′ pyrazino[1′,2′:1,5]pyrrolo[2,3-d]pyrimidin]-6′-one di-hydrochloride] yielded a Kp (in vivo; C57BL/6, mouse) of 17, a Kp at 24 h (in vivo; C57BL/6, mouse) greater than 100 and a concentration at 48 h (in vivo; C57BL/6, mouse) of roughly 65 ng/mL. The “drug in the plasma” value (in vivo; mouse) was “no drug was detectable”, the “neutrophil course during 28 days daily oral treatment” value (neutrophils) was “neutrophils decreased rapidly in a dose dependent manner during the first 14 days” and the IC50 (CDK2/Cyclin E) was 3.6 µM. For the same compound, the IC50 (CDK7/Cyclin H/ Mat1) was 2400 nM, the IC50 (CDK1/Cyclin B1) was 2400 nM and the IC50 (CDK5/p35) was 832 nM. It also gave a half-life (Elimination half-life; Human, calculated as part of NCT02821624) of 900 min and a half-life (Elimination half-life; rat) of 186 min.
